These results are taken from article PMC3216861, “Improving L-arabinose utilization of pentose fermenting Saccharomyces cerevisiae cells by heterologous expression of L-arabinose transporting sugar transporters” (Biotechnology for Biofuels, 2011).

One test concerns the target T1, ScHxt10 (Saccharomyces cerevisiae, UniProt P43581).
T1 construct: gene HXT10; HXT10 under shortened HXT7 promoter on 2-micron plasmid pTHHXT10, expressed in hexose-transporterless strain TSY01
T1 sequence (P43581 1-546): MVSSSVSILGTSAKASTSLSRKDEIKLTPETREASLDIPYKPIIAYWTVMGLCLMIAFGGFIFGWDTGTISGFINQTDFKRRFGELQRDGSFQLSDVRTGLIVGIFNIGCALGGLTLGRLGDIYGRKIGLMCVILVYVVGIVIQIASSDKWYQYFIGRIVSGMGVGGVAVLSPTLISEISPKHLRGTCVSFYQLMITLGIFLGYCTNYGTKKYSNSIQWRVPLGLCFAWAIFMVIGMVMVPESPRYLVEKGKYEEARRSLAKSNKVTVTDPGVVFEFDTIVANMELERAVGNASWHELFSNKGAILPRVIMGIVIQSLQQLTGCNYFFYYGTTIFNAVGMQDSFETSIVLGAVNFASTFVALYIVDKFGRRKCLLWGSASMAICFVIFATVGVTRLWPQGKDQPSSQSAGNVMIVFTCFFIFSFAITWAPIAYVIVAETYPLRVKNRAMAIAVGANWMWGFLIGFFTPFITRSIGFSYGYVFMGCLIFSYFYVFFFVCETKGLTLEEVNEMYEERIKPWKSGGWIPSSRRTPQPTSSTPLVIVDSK
The test can be described thus: growth complementation of transporter-null L-arabinose-utilizing yeast. The conditions noted are these: 20 g/L L-arabinose plates, 30°C, 10 days, strain TSY01; growth read-out only. The format is cell-based.

Another test concerns the target T2, ScHxt9 (Saccharomyces cerevisiae, UniProt P40885).
T2 construct: gene HXT9; HXT9 under shortened HXT7 promoter on 2-micron plasmid pTHHXT9, expressed in hexose-transporterless strain TSY01
T2 sequence (P40885 1-567): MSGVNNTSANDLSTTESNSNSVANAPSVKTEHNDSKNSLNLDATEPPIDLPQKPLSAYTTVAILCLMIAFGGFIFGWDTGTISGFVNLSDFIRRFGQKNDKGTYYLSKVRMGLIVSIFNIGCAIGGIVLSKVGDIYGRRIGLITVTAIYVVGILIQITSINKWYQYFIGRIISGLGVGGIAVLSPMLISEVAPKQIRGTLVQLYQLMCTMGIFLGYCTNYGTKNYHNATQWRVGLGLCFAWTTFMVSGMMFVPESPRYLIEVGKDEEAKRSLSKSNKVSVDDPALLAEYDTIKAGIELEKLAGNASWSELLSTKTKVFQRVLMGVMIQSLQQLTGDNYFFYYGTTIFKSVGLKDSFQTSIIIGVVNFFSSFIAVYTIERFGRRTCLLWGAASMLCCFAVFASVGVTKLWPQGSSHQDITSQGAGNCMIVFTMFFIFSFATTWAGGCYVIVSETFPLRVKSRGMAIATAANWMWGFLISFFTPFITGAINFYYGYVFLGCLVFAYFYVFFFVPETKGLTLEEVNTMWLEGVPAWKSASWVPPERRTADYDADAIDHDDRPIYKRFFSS
The description is as above. The conditions noted are these: 20 g/L L-arabinose plates, 30°C, 10 days, strain TSY01; growth read-out only. Format: cell-based.

As for `OC1OC[C@H](O)[C@H](O)[C@H]1O` (stereo partly drawn) [L-arabinose], the “growth complementation of transporter-null L-arabinose-utilizing yeast” value at ScHxt10 is “Transformants expressing ScGal2, ScHxt9 and ScHxt10 could grow on the L-arabinose medium”; at ScHxt9, “Transformants expressing ScGal2, ScHxt9 and ScHxt10 could grow on the L-arabinose medium”.
